These results are taken from US20110263564A1, “PYRIDINE, BICYCLIC PYRIDINE AND RELATED ANALOGS AS SIRTUIN MODULATORS” (Sirtris Pharmaceuticals, Inc., priority 2008, published 2011).

Some results are limits rather than exact numbers.

The test has as its target T1, SIRT1 (Homo sapiens, UniProt Q96EB6).
T1 sequence (Q96EB6 1-747): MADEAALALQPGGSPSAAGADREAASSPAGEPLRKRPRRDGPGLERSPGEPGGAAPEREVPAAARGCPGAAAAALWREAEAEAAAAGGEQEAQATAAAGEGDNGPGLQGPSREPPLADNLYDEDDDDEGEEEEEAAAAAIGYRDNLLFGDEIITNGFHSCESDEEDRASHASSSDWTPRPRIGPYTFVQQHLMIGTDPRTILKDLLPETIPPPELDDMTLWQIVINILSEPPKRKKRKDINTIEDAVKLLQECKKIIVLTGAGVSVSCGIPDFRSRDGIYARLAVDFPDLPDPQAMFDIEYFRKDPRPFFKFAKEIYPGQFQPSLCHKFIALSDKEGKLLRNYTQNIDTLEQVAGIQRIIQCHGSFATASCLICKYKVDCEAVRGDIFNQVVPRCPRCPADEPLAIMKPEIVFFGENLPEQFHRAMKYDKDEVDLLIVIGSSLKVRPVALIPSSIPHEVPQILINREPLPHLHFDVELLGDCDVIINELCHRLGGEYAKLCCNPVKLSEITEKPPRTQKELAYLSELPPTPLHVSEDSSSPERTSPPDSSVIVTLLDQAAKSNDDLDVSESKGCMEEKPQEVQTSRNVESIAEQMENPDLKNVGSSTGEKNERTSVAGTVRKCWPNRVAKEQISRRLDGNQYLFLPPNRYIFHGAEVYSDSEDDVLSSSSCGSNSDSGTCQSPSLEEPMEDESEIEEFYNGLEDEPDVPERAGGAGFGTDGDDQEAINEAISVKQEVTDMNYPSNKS
Briefly: Mass spectrometry based assay of SIRT1 activity (deacetylation of a p53-based acetylated peptide). The class given is biochemical. The following applies: 10 nM SIRT1, 0.5 μM peptide substrate, 120 μM βNAD+, 25 minutes at 25° C.; for Emax: read-out: % FOLD ACT. (percent maximum fold activation). The text has this: A mass spectrometry based assay was used to identify modulators of SIRT1 activity. The mass spectrometry based assay utilizes a peptide having 20 amino acid residues as follows: Ac-EE-K(biotin)-GQSTSSHSK(Ac)NleSTEG-K(5TMR)-EE-NH2 (SEQ ID NO: 1) wherein K(Ac) is an acetylated lysine residue and Nle is a norleucine. The peptide is labeled with the fluorophore 5TMR (excitation 540 nm/emission 580 nm) at the C-terminus. The sequence of the peptide substrate is based on p53 with several modifications. In addition, the methionine residue naturally present in the sequence was replaced with the norleucine because the methionine may be susceptible to oxidation during synthesis and purification.
The mass spectrometry assay is conducted as follows: 0.5 μM peptide substrate and 120 μM βNAD^+ is incubated with 10 nM SIRT1 for 25 minutes at 25° C. in a reaction buffer (50 mM Tris-acetate pH 8, 137 mM NaCl, 2.7 mM KCl, 1 mM MgCl2, 5 mM DTT, 0.05% BSA). Test compounds may be added to the reaction as described above. […] After the 25 minute incubation with SIRT1, 10 μL of 10% formic acid is added to stop the reaction. Reactions are sealed and frozen for later mass spec analysis. Determination of the mass of the substrate peptide allows for precise determination of the degree of acetylation (i.e. starting material) as compared to deacetylated peptide (product).
A control for inhibition of sirtuin activity is conducted by adding 1 μL of 500 mM nicotinamide as a negative control at the start of the reaction (e.g., permits determination of maximum sirtuin inhibition). A control for activation of sirtuin activity is conducted using 10 nM of sirtuin protein, with 1 μL of DMSO in place of compound, to determine the amount of deacetylation of the substrate at a given timepoint within the linear range of the assay. This timepoint is the same as that used for test compounds and, within the linear range, the endpoint represents a change in velocity.
For the above assay, SIRT1 protein was expressed and purified as follows. […] The protein was expressed by induction with 1 mM IPTG as an N-terminal His-tag fusion protein at 18° C. overnight and harvested at 30,000×g. Cells were lysed with lysozyme in lysis buffer (50 mM Tris-HCl, 2 mM Tris[2-carboxyethyl]phosphine (TCEP), 10 μM ZnCl2, 200 mM NaCl) and further treated with sonication for 10 min for complete lysis. The protein was purified over a Ni-NTA column (Amersham) and fractions containing pure protein were pooled, concentrated and run over a sizing column (Sephadex S200 26/60 global). The peak containing soluble protein was collected and run on an Ion-exchange column (MonoQ). Gradient elution (200 mM-500 mM NaCl) yielded pure protein. This protein was concentrated and dialyzed against dialysis buffer (20 mM Tris-HCl, 2 mM TCEP) overnight. The protein was aliquoted and frozen at −80° C. until further use.
Sirtuin modulating compounds that activated SIRT1 were identified using the assay described above and are shown below in Table 1 for compounds of Formula (III)). The EC1.5 values represent the concentration of test compounds that result in 150% activation of SIRT1. The EC1.5 values for the activating compounds in Table 1 are represented by A (EC1.5<10.0 μM), B (EC1.5 10-25 μM), C (EC1.5>25 μM). The percent maximum fold activation is represented by A (Fold activation>200%) or B (Fold Activation<200%); “NT” means not tested; “ND” mean not determinable.

Regarding `O=C(NC1CCCc2ccc(-c3cccc(C(F)(F)F)c3)nc21)c1ccnc(CN2CCOCC2)c1` (centres unmarked) [Compound 238], the “EC1.5 (concentration of test compound that results in 150% activation of SIRT1)” value was “C (EC1.5>25 μM)”. As for `O=C(Nc1ccccn1)C1CCCc2ccc(-c3cccc(C(F)(F)F)c3)nc21` (centres unmarked) [Compound 284], the “EC1.5 (concentration of test compound that results in 150% activation of SIRT1)” value is listed as “C (EC1.5>25 μM)”. With `Cc1cncc(-c2ccc3c(n2)C(NC(=O)c2cnccn2)CCC3)c1` (centres unmarked) [Compound 200, N-(2-(5-methylpyridin-3-yl)-5,6,7,8-tetrahydroquinolin-8-yl)pyrazine-2-carboxamide], the “EC1.5 (concentration of test compound that results in 150% activation of SIRT1)” value is “C (EC1.5>25 μM)”. Same read-out and setting: next, `O=C(NC1CCCc2ccc(-c3cccc(N4CCCC4)c3)nc21)c1cnccn1` (centres unmarked) [Compound 260]: “C (EC1.5>25 μM)”; `O=C(NC1CCCc2ccc(-c3cccc(C(F)(F)F)c3)nc21)c1cccc2c1OC(F)(F)O2` (centres unmarked) [Compound 226]: “C (EC1.5>25 μM)”. `Cc1cc(C(=O)NC2CCCc3ccc(-c4cccc(C(F)(F)F)c4)nc32)n(C)n1` (centres unmarked) [Compound 227]: the “EC1.5 (concentration of test compound that results in 150% activation of SIRT1)” value is listed as “A (EC1.5<10.0 μM)” and the Emax was over 200%. With `CC(C)c1cccc(-c2cccc(C(C)NC(=O)c3cnccn3)n2)c1` (centres unmarked) [Compound 202], the “EC1.5 (concentration of test compound that results in 150% activation of SIRT1)” value is listed as “C (EC1.5>25 μM)” and the Emax is under 200%.

With `O=C(NC1CCCc2ccc(-c3cccc(C(F)(F)F)c3)nc21)c1cncnc1` (centres unmarked) [Compound 233], the “EC1.5 (concentration of test compound that results in 150% activation of SIRT1)” value is reported as “C (EC1.5>25 μM)”.

With `CC(NC(=O)c1cccnc1)c1cccc(-c2cccc(C(F)(F)F)c2)n1` (centres unmarked) [Compound 212], the “EC1.5 (concentration of test compound that results in 150% activation of SIRT1)” value was “A (EC1.5<10.0 μM)” and the Emax is over 200%.

Take `O=C(NC1CCOc2ccc(-c3cccc(C(F)(F)F)c3)nc21)c1cccc(N2CCOCC2)n1` (centres unmarked) [Compound 222, 6-morpholino-N-(6-(3-(trifluoromethyl)phenyl)-3,4-dihydro-2H-pyrano[3,2-b]pyridin-4-yl)picolinamide]: the “EC1.5 (concentration of test compound that results in 150% activation of SIRT1)” value is given as “A (EC1.5<10.0 μM)” and the Emax is over 200%. For `O=C(NC1CCCc2ccc(-c3cccc(C(F)(F)F)c3)nc21)c1cc[nH]n1` (centres unmarked) [Compound 229], the “EC1.5 (concentration of test compound that results in 150% activation of SIRT1)” value is “B (EC1.5 10-25 μM)” and the Emax was under 200%. Take `CC(NC(=O)c1cnccn1)c1cccc(-c2ccccc2)n1` (centres unmarked) [Compound 211]: the “EC1.5 (concentration of test compound that results in 150% activation of SIRT1)” value is listed as “C (EC1.5>25 μM)”. For the compound `O=C(NC1CCCc2ccc(-c3cccc(C(F)(F)F)c3)nc21)c1ccno1` (centres unmarked) [Compound 230], the “EC1.5 (concentration of test compound that results in 150% activation of SIRT1)” value is “C (EC1.5>25 μM)”.

Take `O=C(NC1CCCc2ccc(-c3cccc(C(F)(F)F)c3)nc21)c1ccnc(OCC(O)CO)c1` (centres unmarked) [Compound 244]: the “EC1.5 (concentration of test compound that results in 150% activation of SIRT1)” value is recorded as “A (EC1.5<10.0 μM)” and the Emax is over 200%. For the compound `Cc1cc(-c2ccc3c(n2)C(NC(=O)c2cnccn2)CCC3)ccn1` (centres unmarked) [Compound 249], the “EC1.5 (concentration of test compound that results in 150% activation of SIRT1)” value is “C (EC1.5>25 μM)”. `O=C(NC1CCCc2ccc(-c3cccc(C(F)(F)F)c3)nc21)c1cscn1` (centres unmarked) [Compound 205]: the “EC1.5 (concentration of test compound that results in 150% activation of SIRT1)” value is given as “C (EC1.5>25 μM)” and the Emax is under 200%.

On to `O=C(NC1CCCc2ccc(-c3cccc(C(F)(F)F)c3)nc21)c1cccnc1OCC(O)CO` (centres unmarked) [Compound 243], for which the “EC1.5 (concentration of test compound that results in 150% activation of SIRT1)” value is listed as “C (EC1.5>25 μM)”. Take `CC(C(=O)Nc1cnccn1)c1cccc(-c2cccc(C(F)(F)F)c2)n1` (centres unmarked) [Compound 214, N-2-pyrazinyl-2-{6-[3-(trifluoromethyl)phenyl]-2-pyridinyl}propanamide]: the “EC1.5 (concentration of test compound that results in 150% activation of SIRT1)” value is “C (EC1.5>25 μM)”.

With `Cc1ccc(-c2ccc3c(n2)C(NC(=O)c2cnccn2)CCC3)cn1` (centres unmarked) [Compound 248], the “EC1.5 (concentration of test compound that results in 150% activation of SIRT1)” value was “C (EC1.5>25 μM)”. As for `Cc1ccnc(NC(=O)C2CCCc3ccc(-c4cccc(C(F)(F)F)c4)nc32)n1` (centres unmarked) [Compound 292], the “EC1.5 (concentration of test compound that results in 150% activation of SIRT1)” value was “C (EC1.5>25 μM)”. Consider `CC(NC(=O)c1cccc(CN2CCCC2)n1)c1cccc(-c2cccnc2)n1` (centres unmarked) [Compound 220], for which the “EC1.5 (concentration of test compound that results in 150% activation of SIRT1)” value is listed as “C (EC1.5>25 μM)”.

Turning to `O=C(Nc1cnccn1)C1CCCc2ccc(-c3cccc(C(F)(F)F)c3)nc21` (centres unmarked) [Compound 289], the “EC1.5 (concentration of test compound that results in 150% activation of SIRT1)” value was “B (EC1.5 10-25 μM)” and the Emax was under 200%. Turning to `O=C(NC1CCCc2ccc(-c3cccnc3O)nc21)c1cnccn1` (centres unmarked) [Compound 257], the “EC1.5 (concentration of test compound that results in 150% activation of SIRT1)” value is given as “C (EC1.5>25 μM)”. For the compound `CC(NC(=O)c1cccnc1)c1cccc(-c2cccc(C(F)(F)F)c2)n1` (centres unmarked) [Compound 216], the “EC1.5 (concentration of test compound that results in 150% activation of SIRT1)” value is reported as “C (EC1.5>25 μM)”.

Turning to `CC(NC(=O)c1cnccn1)c1cccc(-c2cccc(C(F)(F)F)c2)n1` (centres unmarked) [Compound 204, N-(1-(6-(3-(trifluoromethyl)phenyl)pyridin-2-yl)ethyl)pyrazine-2-carboxamide], the “EC1.5 (concentration of test compound that results in 150% activation of SIRT1)” value is given as “B (EC1.5 10-25 μM)” and the Emax was over 200%. With `O=C(NC1CCCc2ccc(-c3cccc(OC(F)(F)F)c3)nc21)c1cnccn1` (centres unmarked) [Compound 252], the “EC1.5 (concentration of test compound that results in 150% activation of SIRT1)” value was “B (EC1.5 10-25 μM)” and the Emax is over 200%. Turning to `O=C(NC1CCCc2ccc(-c3cccc(C(F)(F)F)c3)nc21)c1cccnc1` (centres unmarked) [Compound 232], the “EC1.5 (concentration of test compound that results in 150% activation of SIRT1)” value is recorded as “C (EC1.5>25 μM)” and the Emax was under 200%. With `CC(NC(=O)c1cccnc1)c1cccc(-c2cccc(OC(F)(F)F)c2)n1` (centres unmarked) [Compound 218], the “EC1.5 (concentration of test compound that results in 150% activation of SIRT1)” value was “C (EC1.5>25 μM)”. Take `O=C(Nc1cccc(N2CCOCC2)n1)C1CCOc2ccc(-c3cccc(C(F)(F)F)c3)nc21` (centres unmarked) [Compound 302, N-(6-morpholinopyridin-2-yl)-6-(3-(trifluoromethyl)phenyl)-3,4-dihydro-2H-pyrano[3,2-b]pyridine-4-carboxamide]: the “EC1.5 (concentration of test compound that results in 150% activation of SIRT1)” value is “C (EC1.5>25 μM)”. Still for that read-out and setting: next, `O=C(NC1CCCc2ccc(-c3ccc(N4CCCC4)cc3)nc21)c1cnccn1` (centres unmarked) [Compound 259]: “C (EC1.5>25 μM)”.
